{"source": "patent US20080160000A1", "about": "(priority 2006, published 2008)", "key": {"[1]": {"tested_on": "Eimeria acervulina", "assay": "Example 1: chickens infected with Eimeria acervulina, feed test (growth, lesion, OPG, ACI)", "assay_type": "in vivo", "protocol": "Seven groups (30 chickens/group) of test chickens (type of chickens: chunky, one week of age, male) were prepared.\nThe test chickens of the first to seventh groups are bred for 12 days by freely feeding the feeds (Table 4) obtained by adding the ingredients to the basal feed (100 mass %) shown in Table 1. The test chickens of the second to seventh groups excluding the first group were infected with oocysts of coccidial protozoa Eimeria acervulina in a ratio of 5.0×10^4 oocysts/chicken in an oral administration manner on the seventh day after the start of the breeding. Next, after the breeding was finished, the test chickens of the groups were dissected, and degrees of lesions in the duodenums were evaluated according to the following evaluation criteria. In addition, on the dissection day, feces of the groups were sampled, and the number of oocysts per gram of the feces (OPG) was measured. OPG scores were determined by OPG values according to the evaluation criteria as follow."}, "[2]": {"tested_on": "Eimeria maxima", "assay": "Example 2: chickens infected with Eimeria maxima, feed test (growth, OPG)", "assay_type": "in vivo", "protocol": "Three groups (20 chickens/group) of tested chickens (type of chickens: chunky, neonatal chick, male) were prepared.\nThe test chickens of the eighth to tenth groups are bred for 28 days by freely feeding the feeds (Table 6) obtained by adding the ingredients to the basal feed (100 mass %) shown in Table 1. The test chickens of all the groups were infected with oocysts of coccidial protozoa Eimeria maxima in a ratio of 1.5×10^4 oocysts/chicken in an oral administration manner on the twenty-first day after the breeding. On each sixth to eighth day after the infection, the feces of the groups were sampled, and the number of oocysts per gram of the feces (OPG) was measured (as a three-day average value)."}, "[3]": {"tested_on": "clostridium perfringens", "assay_type": "in vivo, chickens", "conditions": "for Body weight, compared-group comparison / Body weight gain, compared-group comparison / Feed intake, compared-group comparison / Feed conversion ratio, compared-group comparison / Number of clostridium perfringens, compared-group comparison: index, Fifteenth Group = 100"}}, "note": "Read-outs that look alike come from different tables or passages of the source."}
{"compound": "CC[C@@H](C(=O)[C@@H](C)[C@@H](O)[C@H](C)[C@@H]1O[C@@H]([C@@H](CC)C(=O)O)CC[C@@H]1C)[C@H]1O[C@]2(C=C[C@@H](O)[C@]3(CC[C@@](C)([C@H]4CC[C@](O)(CC)[C@H](C)O4)O3)O2)[C@H](C)C[C@@H]1C", "note": "[Third group, Salinomycine]", "values": [{"measurement": "Average OPG score in feces D", "setting": "[1]; 0 to 40 points from OPG values per Table 3, average of three tested bodies in each group", "value": 33.3}, {"measurement": "ACI (anticoccidial indces)", "setting": "[1]; ACI = (A + B) − (10C + D)", "value": 126}, {"measurement": "Relative ratio weight gain/initial weight (compared with First group) A", "setting": "[1]; First group (non-infected basal feed) = 100", "value": 95.0, "unit": "%"}, {"measurement": "Average final body weight", "setting": "[1]; after 12 days breeding, infected on day 7 with 5.0×10^4 oocysts/chicken", "value": 643, "unit": "g"}, {"measurement": "Feed conversion ratio", "setting": "[1]; in vivo", "value": 1.32}, {"measurement": "Feed intake", "setting": "[1]; in vivo", "value": 318, "unit": "g/chicken"}, {"measurement": "Survival ratio B", "setting": "[1]; in vivo", "value": 100.0, "unit": "%"}, {"measurement": "Weight gain/initial weight ratio", "setting": "[1]; in vivo", "value": 60.1, "unit": "%"}, {"measurement": "Body weight gain", "setting": "[1]; initial to final weight", "value": 242, "unit": "g/chicken"}, {"measurement": "Average lesion score C", "setting": "[1]; lesion in duodenum, 0 to 4 points per Table 2", "value": 3.6}, {"measurement": "Body weight gain", "setting": "[2]; 28 days", "value": 1018, "unit": "g/chicken"}, {"measurement": "Feed conversion ratio", "setting": "[2]; 28 days", "value": 1.50}, {"measurement": "Feed intake", "setting": "[2]; 28 days", "value": 1525, "unit": "g/chicken"}, {"measurement": "Final body weight", "setting": "[2]; 28 days breeding, infected day 21 with 1.5×10^4 oocysts/chicken", "value": 1054, "unit": "g/chicken"}, {"measurement": "Maxima OPG", "setting": "[2]; average on the 6 to 8 days after infection", "value": "3.1 10,000 oocysts/g of feces"}, {"measurement": "Growth ratio", "setting": "[2]; in vivo", "value": "100(100) %"}, {"measurement": "Final body weight, compared-group comparison", "setting": "[2]; index, Eighth Group (basal feed) = 100", "value": 117}, {"measurement": "Body weight gain, compared-group comparison", "setting": "[2]; index, Eighth Group = 100", "value": 117}, {"measurement": "Feed conversion ratio, compared-group comparison", "setting": "[2]; index, Eighth Group = 100", "value": 94}, {"measurement": "Feed intake, compared-group comparison", "setting": "[2]; index, Eighth Group = 100", "value": 110}, {"measurement": "Growth ratio, compared-group comparison", "setting": "[2]; index, Eighth Group = 100", "value": "100(100)"}, {"measurement": "Maxima OPG, compared-group comparison", "setting": "[2]; index, Eighth Group = 100", "value": 18}]}
{"compound": "enramycin [Sixteenth Group]", "values": [{"measurement": "Body weight gain", "setting": "[3]; 1 week", "value": 96, "unit": "g/chicken"}, {"measurement": "Feed intake", "setting": "[3]; 1 week", "value": 118, "unit": "g/chicken"}, {"measurement": "Body weight", "setting": "[3]; 1 week of age, basal feed with 30% rye", "value": 136, "unit": "g/chicken"}, {"measurement": "Body weight, compared-group comparison", "setting": "[3]; 1 week of age", "value": 114}, {"measurement": "Body weight gain, compared-group comparison", "setting": "[3]; 1 week", "value": 121}, {"measurement": "Feed intake, compared-group comparison", "setting": "[3]; 1 week", "value": 107}, {"measurement": "Body weight gain", "setting": "[3]; 2 weeks", "value": 220, "unit": "g/chicken"}, {"measurement": "Feed intake", "setting": "[3]; 2 weeks", "value": 323, "unit": "g/chicken"}, {"measurement": "Body weight", "setting": "[3]; 2 weeks of age", "value": 356, "unit": "g/chicken"}, {"measurement": "Body weight, compared-group comparison", "setting": "[3]; 2 weeks of age", "value": 124}, {"measurement": "Body weight gain, compared-group comparison", "setting": "[3]; 2 weeks", "value": 132}, {"measurement": "Feed intake, compared-group comparison", "setting": "[3]; 2 weeks", "value": 140}, {"measurement": "Body weight gain", "setting": "[3]; 3 weeks", "value": 345, "unit": "g/chicken"}, {"measurement": "Feed intake", "setting": "[3]; 3 weeks", "value": 510, "unit": "g/chicken"}, {"measurement": "Body weight", "setting": "[3]; 3 weeks of age", "value": 700, "unit": "g/chicken"}, {"measurement": "Body weight, compared-group comparison", "setting": "[3]; 3 weeks of age", "value": 130}, {"measurement": "Body weight gain, compared-group comparison", "setting": "[3]; 3 weeks", "value": 135}, {"measurement": "Feed intake, compared-group comparison", "setting": "[3]; 3 weeks", "value": 124}, {"measurement": "Feed conversion ratio", "setting": "[3]; First week", "value": 1.23}, {"measurement": "Number of clostridium perfringens", "setting": "[3]; First week, cloacal swab", "value": 2.0, "unit": "LogCFU/g"}, {"measurement": "Feed conversion ratio, compared-group comparison", "setting": "[3]; First week", "value": 89}, {"measurement": "Number of clostridium perfringens, compared-group comparison", "setting": "[3]; First week", "value": 34}, {"measurement": "Feed conversion ratio", "setting": "[3]; Second week", "value": 1.47}, {"measurement": "Number of clostridium perfringens", "setting": "[3]; Second week, cloacal swab", "value": 2.0, "unit": "LogCFU/g"}, {"measurement": "Feed conversion ratio, compared-group comparison", "setting": "[3]; Second week", "value": 106}, {"measurement": "Number of clostridium perfringens, compared-group comparison", "setting": "[3]; Second week", "value": 47}, {"measurement": "Feed conversion ratio", "setting": "[3]; Third week", "value": 1.48}, {"measurement": "Number of clostridium perfringens", "setting": "[3]; Third week, cloacal swab", "value": 2.0, "unit": "LogCFU/g"}, {"measurement": "Feed conversion ratio, compared-group comparison", "setting": "[3]; Third week", "value": 91}, {"measurement": "Number of clostridium perfringens, compared-group comparison", "setting": "[3]; Third week", "value": 41}, {"measurement": "Feed conversion ratio", "setting": "[3]; Total", "value": 1.44}, {"measurement": "Body weight gain", "setting": "[3]; Total (21 days)", "value": 660, "unit": "g/chicken"}, {"measurement": "Feed intake", "setting": "[3]; Total (21 days)", "value": 950, "unit": "g/chicken"}, {"measurement": "Number of clostridium perfringens", "setting": "[3]; Total (no unit printed in this row; weekly rows in LogCFU/g)", "value": 2.0}, {"measurement": "Body weight gain, compared-group comparison", "setting": "[3]; Total", "value": 132}, {"measurement": "Feed conversion ratio, compared-group comparison", "setting": "[3]; Total", "value": 96}, {"measurement": "Feed intake, compared-group comparison", "setting": "[3]; Total", "value": 126}, {"measurement": "Number of clostridium perfringens, compared-group comparison", "setting": "[3]; Total", "value": 40}]}
